The numbers were not newly measured in patent publication US6132722A, “Recombinant antibody-enzyme fusion proteins” (Bristol-Myers Squibb Company, priority 1998, dated 2000), which cites them from elsewhere.

This series relates to 3677 melanoma xenografts. Particulars: drug alone, Kerr et al. 1995.

Turning to `COc1cccc2c1C(=O)c1c(O)c3c(c(O)c1C2=O)C[C@@](O)(C(=O)CO)C[C@@H]3O[C@H]1C[C@H](N)[C@H](O)[C@H](C)O1` [doxorubicin], the “response of the 3677 tumor model to treatment” value was “resistant”.
